Laboratory results as given in ChEMBL document CHEMBL4130365, “An overview of benzo[b]thiophene-based medicinal chemistry” (Eur J Med Chem, 2017).
In brackets after ≈: the same amount, converted by molar mass.

Key:
[1] = test system: Neutrophil; test: Anti inflammatory activity in human neuterophils preincubated for 10 mins followed by zymosan activated serum addition measured for 30 mins; format: functional, cell-based
[2] = test system: Rattus norvegicus; test: Anti-inflammatory activity in rat assessed as inhibition of hind paw edema relative to control; format: functional
[3] = Antioxidant activity assessed as inhibition of DPPH radical formation at 1000 ug/ml relative to control; format: functional
[4] = target: Protein deacetylase HDAC6 (Homo sapiens, UniProt Q9UBN7); test: Inhibition of HDAC6 (unknown origin)
[5] = test system: Candida albicans; test: Antifungal activity against Candida albicans at 1000 ug/ml after 48 hrs by filter paper disc method; format: functional; settings: read-out: IZ
[6] = target: T1, Acetylcholinesterase (Homo sapiens, UniProt P22303); test: Inhibition of AChE (unknown origin)
[7] = target: Cholinesterase (Homo sapiens, UniProt P06276); test: Inhibition of BuChE (unknown origin)
[8] = target: T1, Acetylcholinesterase; test: Inhibition of AChE (unknown origin) using acetylthiocholine as substrate by Ellman's method relative to control; settings: concentration not given here
[9] = target: T2, Amyloid-beta precursor protein (Homo sapiens, UniProt P05067); test: Inhibition of [125I]2-(3'-Iodo-4'-N-methylaminophenyl) benzothiazole binding to amyloid beta (1 to 42) (unknown origin) after 3 hrs by NaI well counting method
[10] = target: T2, Amyloid-beta precursor protein; test: Inhibition of [125I]2-(3'-Iodo-4'-N-methylaminophenyl) benzothiazole binding to amyloid beta (1 to 40) (unknown origin) after 3 hrs by NaI well counting method
[11] = 1-octanol/phosphate buffer partition coefficient, log P of the compound at pH 7.4 by ultraviolet spectrophotometric method; format: physicochemical
[12] = test system: Escherichia coli; test: Antibacterial activity against Escherichia coli ATCC 35218 at 1000 ug/ml after 48 hrs by filter paper disc method; format: functional; settings: ATCC 35218, 48 h, read-out: IZ
[13] = test system: Bacillus spizizenii; test: Antibacterial activity against Bacillus subtilis ATCC 6633 at 1000 ug/ml after 48 hrs by filter paper disc method; format: functional; settings: ATCC 6633, 48 h, read-out: IZ
[14] = target: Gamma-aminobutyric acid receptor subunit alpha-5 (Homo sapiens, UniProt P31644); test: Antagonist activity at human GABA-A alpha5 receptor expressed in HEK293 cell membranes assessed as inhibition of GABA-induced response preincubated for 40 mins followed by GABA addition by FLIPR assay; format: cell-based
[15] = target: Gamma-aminobutyric acid receptor subunit alpha-1 (Homo sapiens, UniProt P14867); test: Antagonist activity at human GABA-A alpha1 receptor expressed in HEK293 cell membranes assessed as inhibition of GABA-induced response preincubated for 40 mins followed by GABA addition by FLIPR assay; format: cell-based
[16] = test system: Escherichia coli; test: Antibacterial activity against Escherichia coli ATCC 35218 at 40 ug/ml after 48 hrs by filter paper disc method; format: functional; settings: ATCC 35218, 48 h, read-out: IZ
[17] = target: Estrogen receptor beta (Homo sapiens, UniProt Q92731); test: Binding affinity to ERbeta (unknown origin)
[18] = target: T3, Estrogen receptor (Homo sapiens, UniProt P03372); test: Agonist activity at ER in human Ishikawa cells assessed as alkaline phosphatase induction after 72 hrs by PNPP substrate based spectophotometric method; format: cell-based
T3 sequence (P03372 whole entry): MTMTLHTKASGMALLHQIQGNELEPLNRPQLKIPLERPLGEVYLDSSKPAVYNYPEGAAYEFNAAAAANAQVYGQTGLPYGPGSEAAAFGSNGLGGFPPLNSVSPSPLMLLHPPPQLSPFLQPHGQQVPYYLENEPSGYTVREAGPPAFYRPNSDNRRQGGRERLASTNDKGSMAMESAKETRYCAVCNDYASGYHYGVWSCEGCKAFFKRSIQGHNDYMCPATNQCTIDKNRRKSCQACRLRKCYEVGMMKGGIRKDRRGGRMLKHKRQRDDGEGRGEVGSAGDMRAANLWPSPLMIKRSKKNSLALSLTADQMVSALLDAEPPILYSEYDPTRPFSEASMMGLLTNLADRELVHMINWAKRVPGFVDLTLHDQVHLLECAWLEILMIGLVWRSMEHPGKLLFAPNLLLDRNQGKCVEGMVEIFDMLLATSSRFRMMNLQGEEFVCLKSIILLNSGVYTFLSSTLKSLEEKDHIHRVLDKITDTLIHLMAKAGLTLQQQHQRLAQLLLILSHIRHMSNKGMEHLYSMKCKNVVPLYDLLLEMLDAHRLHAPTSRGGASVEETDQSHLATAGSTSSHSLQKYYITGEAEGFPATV

[19] = target: T3, Estrogen receptor; test: Antagonist activity at ER in human Ishikawa cells assessed as inhibition of E2-induced alkaline phosphatase induction after 72 hrs by PNPP substrate based spectophotometric method; format: cell-based
[20] = target: T3, Estrogen receptor; test: Binding affinity to ERalpha (unknown origin)
[21] = test system: MCF7; test: Inhibition of 17beta-estradiol-induced human MCF7 cells proliferation assessed as reduction in [3H]thymidine incorporation preincubated for 48 hrs followed by [3H]thymidine addition measured after 4 hrs by liquid scintillation counting method; format: functional, cell-based
[22] = test system: Bacillus subtilis; test: Antibacterial activity against Bacillus subtilis at 5 ug/disc; format: functional; settings: read-out: IZ
[23] = test system: Staphylococcus aureus; test: Antibacterial activity against Staphylococcus aureus at 5 ug/disc; format: functional; settings: read-out: IZ
[24] = test system: DU-145; test: Growth inhibition of human DU145 cells; format: functional
[25] = test system: Panel NCI-60 (60 carcinoma cell lines); test: Growth inhibition of human NCI60 cells; format: functional
[26] = test system: NCI-H460; test: Growth inhibition of human NCI-H460 cells; format: functional, cell-based
[27] = test system: FaDu; test: Growth inhibition of human FADU cells; format: functional
[28] = test system: SK-N-SH; test: Growth inhibition of human SK-N-SH cells; format: functional
[29] = target: Tubulin; test: Inhibition of tubulin polymerization (unknown origin); format: protein-complex assay, Homo sapiens
[30] = test system: BXPC-3; test: Growth inhibition of human BxPC3 cells; format: functional
[31] = test system: SW-1736; test: Growth inhibition of human SW1736 cells; format: functional
[32] = Antioxidant activity assessed as inhibition of DPPH radical formation at 100 ug/ml relative to control; format: functional
[33] = test system: Rattus norvegicus; test: Inhibition of glucose-induced sorbitol accumulation in sciatic nerve of streptozotocin-induced diabetic rat model administered via oral gavage at 4 to 24 hrs post streptozotocin treatment measured at 27 hrs post streptozotocin treatment relative to control; format: functional
[34] = test system: Aspergillus niger; test: Antifungal activity against Aspergillus niger at 1000 ug/ml after 48 hrs by filter paper disc method; format: functional; settings: read-out: IZ
[35] = test system: Penicillium chrysogenum; test: Antifungal activity against Penicillium notatum at 1000 ug/ml after 48 hrs by filter paper disc method; format: functional; settings: read-out: IZ
[36] = target: Calpain-1 catalytic subunit (Homo sapiens, UniProt P07384); test: Inhibition of human erythrocytes mu-calpain using SucLeu-Tyr-AMC as substrate
[37] = test system: Pseudomonas aeruginosa; test: Antibacterial activity against Pseudomonas aeruginosa by broth dilution method; format: functional
[38] = test system: Aspergillus clavatus; test: Antifungal activity against Aspergillus clavatus by broth dilution method; format: functional
[39] = test system: Aspergillus niger; test: Antifungal activity against Aspergillus niger by broth dilution method; format: functional
[40] = Antioxidant activity assessed as inhibition of superoxide anion radical formation after 5 mins in presence of PMS and NADH by nitroblue tetrazolium method relative to control; format: functional

T1 sequence (P22303 whole entry): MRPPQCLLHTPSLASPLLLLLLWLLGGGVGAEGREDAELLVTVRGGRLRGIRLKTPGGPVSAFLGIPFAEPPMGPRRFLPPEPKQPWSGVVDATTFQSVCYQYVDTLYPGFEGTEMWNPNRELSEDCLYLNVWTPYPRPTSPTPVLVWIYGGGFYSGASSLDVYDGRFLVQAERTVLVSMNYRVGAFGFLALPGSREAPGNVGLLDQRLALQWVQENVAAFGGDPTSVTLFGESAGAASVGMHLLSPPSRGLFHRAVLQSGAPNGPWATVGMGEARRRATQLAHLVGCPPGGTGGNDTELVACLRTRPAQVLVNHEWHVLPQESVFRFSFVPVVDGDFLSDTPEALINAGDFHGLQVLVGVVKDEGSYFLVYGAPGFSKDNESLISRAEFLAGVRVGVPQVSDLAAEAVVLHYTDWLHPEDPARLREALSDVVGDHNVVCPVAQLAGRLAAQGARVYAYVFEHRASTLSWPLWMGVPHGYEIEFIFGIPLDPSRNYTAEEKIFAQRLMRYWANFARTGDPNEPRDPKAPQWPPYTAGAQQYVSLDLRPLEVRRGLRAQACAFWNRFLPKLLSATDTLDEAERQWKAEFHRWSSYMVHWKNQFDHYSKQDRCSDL
T2 sequence (P05067 whole entry): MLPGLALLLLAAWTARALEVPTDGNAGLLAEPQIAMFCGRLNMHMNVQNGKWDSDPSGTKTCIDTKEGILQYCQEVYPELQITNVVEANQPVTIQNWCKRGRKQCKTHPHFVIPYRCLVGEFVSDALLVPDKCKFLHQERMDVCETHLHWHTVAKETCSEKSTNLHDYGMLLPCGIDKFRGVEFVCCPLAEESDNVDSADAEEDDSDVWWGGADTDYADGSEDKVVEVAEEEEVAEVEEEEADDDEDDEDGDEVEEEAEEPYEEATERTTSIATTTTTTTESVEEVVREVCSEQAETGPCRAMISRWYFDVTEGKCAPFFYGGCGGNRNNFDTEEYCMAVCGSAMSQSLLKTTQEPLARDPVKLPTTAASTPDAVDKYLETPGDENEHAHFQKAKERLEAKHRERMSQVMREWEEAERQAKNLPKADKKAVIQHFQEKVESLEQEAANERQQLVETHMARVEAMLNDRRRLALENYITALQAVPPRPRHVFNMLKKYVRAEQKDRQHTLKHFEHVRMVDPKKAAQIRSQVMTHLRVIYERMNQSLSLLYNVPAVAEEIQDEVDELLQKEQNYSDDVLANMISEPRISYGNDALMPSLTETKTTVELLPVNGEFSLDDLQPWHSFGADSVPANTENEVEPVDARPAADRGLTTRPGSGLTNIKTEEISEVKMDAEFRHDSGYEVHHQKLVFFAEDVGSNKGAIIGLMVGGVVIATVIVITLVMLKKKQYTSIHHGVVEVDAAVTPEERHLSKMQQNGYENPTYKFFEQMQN
Chain of Protein deacetylase HDAC6 (Q9UBN7 whole entry): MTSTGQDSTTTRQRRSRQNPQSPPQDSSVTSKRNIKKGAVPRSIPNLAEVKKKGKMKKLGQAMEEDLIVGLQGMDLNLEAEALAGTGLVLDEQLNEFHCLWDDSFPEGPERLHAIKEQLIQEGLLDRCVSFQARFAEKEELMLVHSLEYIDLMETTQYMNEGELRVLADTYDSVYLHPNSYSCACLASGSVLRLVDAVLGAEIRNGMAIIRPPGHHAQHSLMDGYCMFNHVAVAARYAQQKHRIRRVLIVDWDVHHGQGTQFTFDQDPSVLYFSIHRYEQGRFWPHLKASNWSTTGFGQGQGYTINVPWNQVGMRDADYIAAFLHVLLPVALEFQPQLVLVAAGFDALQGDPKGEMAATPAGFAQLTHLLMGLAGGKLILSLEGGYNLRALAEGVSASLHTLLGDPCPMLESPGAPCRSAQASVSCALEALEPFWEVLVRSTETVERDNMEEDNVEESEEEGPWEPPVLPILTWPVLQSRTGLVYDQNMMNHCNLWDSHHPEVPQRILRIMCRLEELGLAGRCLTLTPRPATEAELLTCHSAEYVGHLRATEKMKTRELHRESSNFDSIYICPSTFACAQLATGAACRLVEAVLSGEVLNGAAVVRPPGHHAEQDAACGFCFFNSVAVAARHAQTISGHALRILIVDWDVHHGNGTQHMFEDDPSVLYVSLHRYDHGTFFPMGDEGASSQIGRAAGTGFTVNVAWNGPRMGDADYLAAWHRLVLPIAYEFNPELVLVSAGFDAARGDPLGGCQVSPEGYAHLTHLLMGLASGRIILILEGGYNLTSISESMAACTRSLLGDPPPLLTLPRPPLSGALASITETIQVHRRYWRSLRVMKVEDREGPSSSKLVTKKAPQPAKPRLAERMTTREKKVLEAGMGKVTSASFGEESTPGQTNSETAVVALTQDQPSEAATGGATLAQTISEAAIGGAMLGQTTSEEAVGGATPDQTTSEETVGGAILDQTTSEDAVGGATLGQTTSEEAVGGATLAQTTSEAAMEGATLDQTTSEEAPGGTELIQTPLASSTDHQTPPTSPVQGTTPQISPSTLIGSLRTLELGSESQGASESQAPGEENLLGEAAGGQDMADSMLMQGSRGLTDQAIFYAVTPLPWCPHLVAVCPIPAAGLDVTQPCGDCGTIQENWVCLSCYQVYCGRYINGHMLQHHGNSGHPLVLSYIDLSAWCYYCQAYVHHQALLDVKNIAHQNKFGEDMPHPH
Chain of Cholinesterase (P06276 whole entry): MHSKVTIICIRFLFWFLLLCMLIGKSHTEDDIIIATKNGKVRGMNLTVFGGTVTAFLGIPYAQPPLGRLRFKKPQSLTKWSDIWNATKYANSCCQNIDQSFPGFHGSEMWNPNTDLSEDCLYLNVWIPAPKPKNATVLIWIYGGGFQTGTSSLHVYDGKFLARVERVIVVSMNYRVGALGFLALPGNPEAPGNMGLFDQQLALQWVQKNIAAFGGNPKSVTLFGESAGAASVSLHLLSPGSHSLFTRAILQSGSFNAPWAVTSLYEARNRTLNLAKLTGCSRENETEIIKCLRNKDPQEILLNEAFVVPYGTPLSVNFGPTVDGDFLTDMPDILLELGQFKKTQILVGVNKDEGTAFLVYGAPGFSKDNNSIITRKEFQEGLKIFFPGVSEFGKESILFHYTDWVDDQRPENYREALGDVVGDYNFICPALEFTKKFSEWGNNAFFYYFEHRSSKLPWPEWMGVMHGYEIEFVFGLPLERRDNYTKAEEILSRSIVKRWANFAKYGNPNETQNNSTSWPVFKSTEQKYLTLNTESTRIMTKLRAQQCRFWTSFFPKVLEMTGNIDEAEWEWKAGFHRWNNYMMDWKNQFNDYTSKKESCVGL
Chain of Gamma-aminobutyric acid receptor subunit alpha-5 (P31644 whole entry): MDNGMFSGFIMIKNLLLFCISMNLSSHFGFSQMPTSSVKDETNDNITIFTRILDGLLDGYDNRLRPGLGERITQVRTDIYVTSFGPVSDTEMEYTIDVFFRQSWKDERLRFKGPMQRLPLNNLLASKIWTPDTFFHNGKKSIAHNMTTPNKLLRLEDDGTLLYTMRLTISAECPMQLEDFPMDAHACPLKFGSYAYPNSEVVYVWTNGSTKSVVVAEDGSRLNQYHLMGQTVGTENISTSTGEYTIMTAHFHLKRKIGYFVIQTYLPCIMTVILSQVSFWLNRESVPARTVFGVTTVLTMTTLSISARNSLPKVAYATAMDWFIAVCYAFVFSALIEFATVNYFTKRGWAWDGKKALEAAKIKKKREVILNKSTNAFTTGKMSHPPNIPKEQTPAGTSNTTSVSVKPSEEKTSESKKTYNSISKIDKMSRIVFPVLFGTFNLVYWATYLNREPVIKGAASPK
Chain of Estrogen receptor beta (Q92731 whole entry): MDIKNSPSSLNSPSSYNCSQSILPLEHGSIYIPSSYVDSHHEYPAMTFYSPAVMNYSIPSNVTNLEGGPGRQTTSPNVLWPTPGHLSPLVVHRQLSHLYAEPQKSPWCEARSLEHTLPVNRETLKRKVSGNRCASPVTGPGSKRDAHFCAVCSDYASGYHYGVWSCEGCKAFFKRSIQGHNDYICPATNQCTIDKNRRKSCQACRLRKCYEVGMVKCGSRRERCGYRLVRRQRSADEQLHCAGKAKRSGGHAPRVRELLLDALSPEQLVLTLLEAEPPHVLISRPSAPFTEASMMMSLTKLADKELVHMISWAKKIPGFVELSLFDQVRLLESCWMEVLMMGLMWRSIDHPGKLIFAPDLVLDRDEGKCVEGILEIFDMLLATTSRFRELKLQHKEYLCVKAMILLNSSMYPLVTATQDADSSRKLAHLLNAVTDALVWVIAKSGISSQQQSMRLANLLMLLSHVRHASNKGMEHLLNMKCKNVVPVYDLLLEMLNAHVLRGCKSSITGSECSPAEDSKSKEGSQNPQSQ
Chain of Gamma-aminobutyric acid receptor subunit alpha-1 (P14867 whole entry): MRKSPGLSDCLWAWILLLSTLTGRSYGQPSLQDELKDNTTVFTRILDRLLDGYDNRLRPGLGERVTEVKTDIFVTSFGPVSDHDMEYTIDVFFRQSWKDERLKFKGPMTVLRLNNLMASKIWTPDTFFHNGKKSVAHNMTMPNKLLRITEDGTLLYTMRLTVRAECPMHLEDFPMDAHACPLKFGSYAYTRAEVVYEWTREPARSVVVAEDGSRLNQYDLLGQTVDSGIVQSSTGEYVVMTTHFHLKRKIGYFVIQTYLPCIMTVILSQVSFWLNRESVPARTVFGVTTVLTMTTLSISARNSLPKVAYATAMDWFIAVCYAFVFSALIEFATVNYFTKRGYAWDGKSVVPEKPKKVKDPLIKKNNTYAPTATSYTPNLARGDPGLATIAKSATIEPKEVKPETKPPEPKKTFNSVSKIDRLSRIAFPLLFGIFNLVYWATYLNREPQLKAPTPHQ

SMILES: CCOC(=O)c1c(NC(=O)C(Cl)Cl)sc2c1CCCC2
- IC50 [1]: 396 µM
- inhibition (INH) [2]: 81%

SMILES: CCOC(=O)c1c(-n2c(-c3ccccc3)nc3c(Br)cc(Br)cc3c2=O)sc2c1CCCC2
- inhibition [3]: 67%

SMILES: CNC(=O)c1ccc(Nc2c[nH]c3ccccc23)cc1
- IC50 [4]: 200 nM

SMILES: O=C(CSc1nnc(-c2sc3ccccc3c2Cl)[nH]1)c1ccccc1
- zone of inhibition at 1000 µg/mL [5]: 16 mm

SMILES: O=C1SCc2cccc([N+](=O)[O-])c21
- Ki [6]: 11.8 µM
- Ki [7]: 0.341 mM

SMILES: Clc1c(NNc2nc(-c3ccccc3)cs2)sc2ccccc12
- zone of inhibition at 1000 µg/mL [5]: 15 mm

SMILES: CCOC(=O)c1c(NC(=O)CN2CCN(Cc3ccccc3)CC2)sc2c1CCCC2
- inhibition [8]: 38.4%

SMILES: Nc1ccc(-c2cc3ccccc3s2)cc1
- Ki [9]: 6.5 nM
- Ki [10]: 4.31 nM
- logD [11]: 2.87

SMILES: O=c1[nH]c(-c2sc3ccccc3c2Cl)nc2ccccc12
- zone of inhibition at 1000 µg/mL [12]: 16 mm
- zone of inhibition at 1000 µg/mL [13]: 15 mm

SMILES: CC1=NN=C(c2cc3c(C(F)(F)F)cccc3s2)c2cc3oc(=O)[nH]c3cc2C1
- IC50 [14]: 201 nM
- IC50 [15]: 479 nM

SMILES: Cc1cccc(NC(=O)Nc2sc3ccccc3c2Cl)c1
- zone of inhibition at 40 µg/mL [16]: 13 mm

SMILES: Oc1ccc2c(c1)C(c1ccc(OCCN3CCCCC3)cc1)c1c(sc3cc(O)ccc13)C2 (stereo not drawn)
- Ki [17]: 0.9 nM
- EC50 [18]: 0.9 nM
- IC50 [19]: 53 nM
- Ki [20]: 0.5 nM

SMILES: O=C(c1ccc(OCCN2CCCCC2)cc1)c1c(-c2ccc(O)cc2)sc2cccc(O)c12
- IC50 [21]: 190 nM

SMILES: Oc1ccc(-c2cc3ccccc3s2)cc1
- Ki [9]: 3.72 nM
- Ki [10]: 3.04 nM
- logD [11]: 2.99

SMILES: COc1cccc(C2OC(c3sc4ccccc4c3Cl)=NN2C(C)=O)c1 (stereo not drawn)
- zone of inhibition at 5 µg/disc [22]: 27 mm
- zone of inhibition at 5 µg/disc [23]: 30 mm

SMILES: COc1ccc(-c2sc3cc(OC)ccc3c2Oc2cc(OC)c(OC)c(OC)c2)cc1
- GI50 [24]: 0.42 µg/mL (≈ 0.928 µM)
- GI50 [25]: 490 nM
- GI50 [26]: 0.31 µg/mL (≈ 0.685 µM)
- GI50 [27]: 0.098 µg/mL (≈ 0.217 µM)
- GI50 [28]: 0.063 µg/mL (≈ 0.139 µM)
- IC50 [29]: 880 nM
- GI50 [30]: 0.23 µg/mL (≈ 0.508 µM)
- GI50 [31]: 0.73 µg/mL (≈ 1.61 µM)

SMILES: Cc1cc(=O)oc2c(/C=N/NC(=O)c3sc4ccccc4c3Cl)c(O)ccc12
- inhibition [32]: 70%

SMILES: O=C1SCc2ccccc21
- Ki [6]: 59.8 µM
- Ki [7]: 4.89 mM

SMILES: O=C(O)Cc1nn(Cc2nc3cc(C(F)(F)F)ccc3s2)c(=O)c2ccccc12 [ZOPOLRESTAT]
- inhibition (INH) [33]: 80%

SMILES: COc1ccc(C2OC(c3sc4ccccc4c3Cl)=NN2C(C)=O)cc1 (stereo not drawn)
- zone of inhibition at 5 µg/disc [22]: 28 mm
- zone of inhibition at 5 µg/disc [23]: 28 mm

SMILES: O=c1c2ccccc2nc(-c2sc3ccccc3c2Cl)n1O
- zone of inhibition at 1000 µg/mL [12]: 12 mm
- zone of inhibition at 1000 µg/mL [13]: 16 mm

SMILES: Nc1c(C(=O)Nn2c(=O)cc(-c3ccccc3)c3ccc(O)cc32)sc2cc(F)ccc12
- zone of inhibition at 1000 µg/mL [34]: 27 mm
- zone of inhibition at 1000 µg/mL [35]: 26 mm

SMILES: NC(=O)C(=O)C(Cc1ccccc1)NC(=O)C1CCN(c2cc3ccccc3s2)CC1 (stereo not drawn)
- Ki [36]: 9 nM

SMILES: COc1ccc(-c2c(Oc3cc(OC)c(OC)c(OC)c3)c3ccc(OC)cc3[s+]2[O-])cc1 (stereo not drawn)
- GI50 [24]: 7.3 µg/mL (≈ 15.6 µM)
- GI50 [26]: 3.2 µg/mL (≈ 6.83 µM)
- GI50 [27]: 3.4 µg/mL (≈ 7.26 µM)
- GI50 [28]: 1.9 µg/mL (≈ 4.06 µM)
- GI50 [30]: 2.1 µg/mL (≈ 4.48 µM)
- GI50 [31]: 3.7 µg/mL (≈ 7.9 µM)

SMILES: CC1(C)CC(=O)C2=C(C1)NC(=O)NC2c1cn(C(=O)c2sc3ccc(F)cc3c2Cl)c2ccccc12 (stereo not drawn)
- MIC [37]: 100 µg/mL (≈ 192 µM)
- MIC [38]: 100 µg/mL (≈ 192 µM)
- MIC [39]: 100 µg/mL (≈ 192 µM)

SMILES: CCOC(=O)c1c(N)sc2c1CCCC2
- IC50 [1]: 121 µM
- inhibition (INH) [2]: 61%
- inhibition [40]: 58.6%

SMILES: CNC(=O)c1ccc(Nc2csc3ccccc23)cc1
- IC50 [4]: 14 nM

SMILES: O=C(O)Cc1nn(Cc2cc3cc(F)ccc3s2)c(=O)c2ccccc12
- inhibition (INH) [33]: 49%

SMILES: Cc1ccccc1NNC(=O)Nc1sc2ccccc2c1Cl
- zone of inhibition at 40 µg/mL [16]: 13 mm

SMILES: NC(=O)c1c(NC(=O)CN2CCN(Cc3ccccc3)CC2)sc2c1CCCC2
- inhibition [8]: 56.7%

SMILES: O=C(c1ccc(OCCN2CCCCC2)cc1)c1c(-c2ccc(Cl)cc2)sc2cc(O)ccc12
- IC50 [21]: 1 nM
